Source: US4663438A, “Novel nucleic acid-containing glycoprotein” (Kureha Kagaku Kogyo Kabushiki Kaisha, priority 1981, dated 1987)

System: sarcoma-180 cells
Experiment: Inhibition by monosaccharide of agglutination of sarcoma-180 cells due to the present substance
Format: cell-based, mouse
Conditions: present substance 3 mg with monosaccharide 1.5 mg, 30 min, 37° C.; blank test 18
Protocol: (ii) Test on the inhibition by monosaccharide of agglutination of sarcoma-180 cells due to the present substance
The same specimen of sarcoma-180 cells suspending in 0.5 ml of Hanks' solution at a rate of 1×10^6 cells/ml as in Test (i) and each 0.5 ml of the physiological saline solution containing 3 mg of the present substance and 1.5 mg of the respective monosaccharides set forth below, which was incubated for 30 min. at 37° C., then discarding the supernatant medium and washing the residue with Hanks' solution, the remaining residue was examined under a microscope to count the number of agglutinated lumps of the cells.

Structure (SMILES)	Number of agglutinated lumps
CO[C@H]1O[C@H](CO)[C@@H](O)[C@H](O)[C@H]1O [methyl α-glucoside]	115
COC1OC(CO)C(O)C(O)C1O (stereo not drawn) [methyl α-mannoside]	35
C[C@H](O)[C@H](O)[C@@H](O)[C@@H](O)C=O [L-rhamnose]	25
CC(=O)N[C@@H]1[C@@H](O)[C@H](O)[C@@H](CO)O[C@H]1O [N--acetylglucosamine]	85
O=C[C@H](O)[C@@H](O)[C@@H](O)[C@H](O)CO [D-galactose]	118
C[C@H](O)[C@@H](O)[C@@H](O)[C@H](O)C=O [L-fucose]	27
